The subject of data set [1] is MG-63 cells. Nature of the data set: Collagen-I immunofluorescence in MG-63 cells treated with iron chelator. It is filed as cell-based, human. To be noted: 48 hours. The method, then:
For microscopy images, cells were cultured in a 24-well plate and incubated with medium supplemented with the indicated concentrations of the treating entity (e.g., peptides or DFO) at 37° C. under 5% CO2. Cells were then washed additional three times with cold phosphate-buffered saline (PBS), following a 20 minute fixation in a 4% paraformaldehyde (PFA) in PBS and extensively washed three times with PBS to remove the PFA, followed by a 20 minute wash with blocking and penetration solution (PBS with 0.1% Triton X-100 and 2% BSA). Fixed cells were incubated with antibodies for 1 hour at 25° C., washed, and developed together with fluorescence-tagged secondary antibodies (Alexa 488 and 647, Abcam). Cell nuclei were stained with 1 mg/mL 4′,6-diamidino-2-phenylindole (DAPI Staining Solution ab228549, Abcam). Images were taken using a ZEISS LSM 900 in confocal mode, using Zen 3.1. Fluorescence readouts were obtained at ex/em of 358/461, 495/519 nm, and 652/668 nm for blue, green, and red, respectively.
The present inventors have incubated MG-63 cells with deferoxamine mesylate (DFO), an iron chelator, to explore the possibility of enhancing Collagen-I levels in these cells.

Data set [2] concerns NIH/3T3 cell line. Nature of the data set: Collagen type 1 immunofluorescence in NIH/3T3 cells (Incucyte). Format: cell-based, mouse. As to conditions: 48 hours; for concentrations with significant increase of collagen type 1 normalized to number of cells vs untreated cells: serial dilution 5-0.02 μM, one-way ANOVA. The method, then:
(§1) Embryonic mouse fibroblast NIH/3T3 cell line (ATCC) were seeded at a concentration of 50*10^3 cells/well on 96 well glass bottom plate (P96-1.5H-N, Cellvis) for the immunofluorescence experiment and on cell culture microplate, 96 well, PS, F-Bottom (655090, greiner) for the viability experiment. The cells were cultured with Dulbecco's modified Eagle's medium (DMEM) supplemented with 10% fetal calf serum, 1% Penicillin-Streptomycin solution and 1% L-glutamine (All purchased from Rhenium). At 24 hours post seeding, cells were treated for another 48 hours by replacing them with the cell medium supplemented with a serial dilution (5-0.02 μM, factor dilution of 2) of the ML228, Daprodustat, Enarodustat, Molidustat, Vadadustat or Roxadustat molecules dissolved in DMSO. The final DMSO concentration in the cell medium was 0.01%. Cells were maintained in an incubator at 37° C. in a humidified atmosphere containing 5% CO2.
At 48 hours post treatment with either Daprodustat, Enarodustat, Molidustat, Vadadustat or Roxadustat, cells were fixed for 10 minutes together with their media with 8% paraformaldehyde (PFA, Electron Microscopy Sciences) dissolved in phosphate-buffered saline (PBS, Invitrogen) to a final concentration of 4% PFA, without any wash to avoid cells detachment from the glass. Cells were briefly washed four times with ice-cold PBS to remove the PFA and kept overnight at 4° C. The following day, a blocking solution which contains 1.5% Bovine Serum Albumin (Sigma Aldrich) dissolved in PBS was applied for 30 minutes, followed by an overnight incubation at 4° C. with recombinant rabbit anti-mouse Collagen-I 1° antibody (primary Ab) [EPR24331-53] (ab270993, Abcam), dissolved in the blocking solution (1:1000 dilution). The following day, cells were washed for 3 times with PBS (5 minutes each), followed by immunostaining with goat anti-rabbit IgG H&L (Alexa Fluor® 488) 2° antibody (secondary Ab) (ab150077, Abcam) dissolved in blocking solution (1:1000 dilution). Cells were washed again for 3 times with PBS (5 minutes each), stained for 30 minutes with DRAQ5™ (ab108410, Abcam) for nuclei staining dissolved in PBS (1:1000 dilution), and washed once again with PBS. For the ML228 experiment, cells were washed with PBS before applying 4% PFA dissolved in PBS. Then, fixed cells were additionally permeabilized with 0.2% Triton™ X-100 (Merck) dissolved in PBS, additionally stained with Phalloidin-Atto 594 (51927, Sigma Aldrich) for F-Actin staining for 1 hour (1:250 dilution) together with the aforementioned secondary antibody, followed by 10 minutes incubation with DAPI staining solution (ab228549, Abcam) for nuclei staining dissolved in PBS (1:1000 dilution).
Images were taken using a ZEISS LSM 900 in wide-field or in the LSM confocal detection mode (ML228 experiment), using Zen 3.1. Fluorescence readouts were obtained at excitation/emission: 353/465 nm (DAPI), 493/517 nm (Collagen-I), 590/618 (F-Actin) and 647/683 nm (DRAQ5) using a Plan-Apochromat 20×/0.8 M27 objective.
Image acquisition and quantification were performed by Incucyte SX5 (Sartorius) using software version 2022B Rev2. A standard scan was done for 9 images per well using 20× objective, 2 optical modules (green at excitation/emission of 453-485 nm/494-533 nm in 300 msec acquisition time, and near-IR at excitation/emission of 648-674 nm/685-756 nm in 400 msec acquisition time, including Phase channel) following immunofluorescence protocol. For the image analysis, 2-6 replicates per condition were used. Using the Basic Analyzer mode, “Phase Object Confluence (%)” was acquired using the Phase channel. This measurement is the percentage of the image area occupied by cells. “Total Collagen-I Integrated Intensity Per Image (GCU×μm^2/Image)” was acquired using the green optical module. GCU stands for Green calibrated Unit, while this measurement is the total sum of the Collagen-I objects' fluorescent intensity in the image. “#Cells (Per image)” was acquired by the near-IR optical module. […]

For data set [3], the system named is NIH/3T3 cell line. In words: Cell confluence / number of cells per image in NIH/3T3 cells. Format: cell-based, mouse. To be noted: 48 hours; for toxicity suggested by number of cells: 5-0.02 μM. How it is done: as §1
Image acquisition and quantification were performed by Incucyte SX5 (Sartorius) using software version 2022B Rev2. A standard scan was done for 9 images per well using 20× objective, 2 optical modules (green at excitation/emission of 453-485 nm/494-533 nm in 300 msec acquisition time, and near-IR at excitation/emission of 648-674 nm/685-756 nm in 400 msec acquisition time, including Phase channel) following immunofluorescence protocol. For the image analysis, 2-6 replicates per condition were used. Using the Basic Analyzer mode, “Phase Object Confluence (%)” was acquired using the Phase channel. This measurement is the percentage of the image area occupied by cells. “Total Collagen-I Integrated Intensity Per Image (GCU×μm^2/Image)” was acquired using the green optical module. GCU stands for Green calibrated Unit, while this measurement is the total sum of the Collagen-I objects' fluorescent intensity in the image. “#Cells (Per image)” was acquired by the near-IR optical module. This measurement was calculated by counting the number of nuclei per image.
Multiple comparisons were performed by ordinary one-way ANOVA followed by Dunnett's post-hoc statistical hypothesis for comparing each condition mean to the control mean. Statistical analysis was done using GraphPad Prism version 10.0.0 for Windows, GraphPad Software, Boston, Massachusetts USA, worldwideweb(dot)graphpad(dot)com. For statistical analysis, significance was set as (*) p≤0.05; (**) p≤0.01; (***) p≤0.001; (****) p≤0.0001 and (ns; not significant) p>0.05.

In data set [4] the target is T1, PHD2/EGLN1 (HIF-prolyl hydroxylase 2) (human, UniProt Q9GZT9 181-426).
T1 construct: The protein was expressed as a cleavable GST fusion and the eluate of the GST column was used; also called PHD enzyme; PHD protein
In words: fluorescence polarization; PHD protein titrated into 200 nM FITC-labeled peptide; single site fit. How it is done: Fluorescence polarization (FP) assay—Fluorescence Polarization (FP) measurements were performed on samples arrayed in a 96-well plate using Biotek HybridH1 reader equipped with a polarized optic system. Binding assay was evaluated by adding variable concentrations of PHD protein into 200 nM of FITC-labeled peptides. Experimental polarization data were fitted using GraphPad Prism9 into a single site binding model, with error bars representing standard deviation.
In general terms: Polarisation of emitted light reports the rotation of a fluorescent probe.

8 molecules from patent publication US20250171821A1, “HIF-1 ACTIVATORS AND USES THEREOF” (Ramot at Tel-Aviv University Ltd., priority 2022, published 2025) can be followed below.

Where a name gives a salt, the structure may show the parent alone. Where no end group is shown, it is not given here.

T1 sequence (Q9GZT9 other isoform, or with tags, fused parts or gaps limits assumed): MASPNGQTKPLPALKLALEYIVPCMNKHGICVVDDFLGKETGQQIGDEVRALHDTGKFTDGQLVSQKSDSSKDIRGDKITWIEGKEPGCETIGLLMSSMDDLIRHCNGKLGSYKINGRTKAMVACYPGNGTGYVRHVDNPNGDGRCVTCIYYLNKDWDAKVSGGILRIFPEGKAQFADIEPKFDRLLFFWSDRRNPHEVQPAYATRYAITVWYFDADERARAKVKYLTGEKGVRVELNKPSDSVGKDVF

In the case of `CC(=O)N(O)CCCCCNC(=O)CCC(=O)N(O)CCCCCNC(=O)CCC(=O)N(O)CCCCCN` [DFO, Deferoxamine mesylate], the “DFO concentration giving maximal Collagen-I levels” value in data set [1] (normalized to β-tubulin) lay in the range of 10 to 20 µM. In addition, the Collagen-I production result in data set [1] (even at low DFO concentrations such as 0.15 μM) was “increased Collagen-I production”.
Take `O=C(O)CNC(=O)c1ncc(-c2cccc(Cl)c2)cc1O` [Vadadustat, N-[[5-(3-Chlorophenyl)-3-hydroxy-2-pyridinyl]carbonyl]glycine]: in data set [2] (0.02-5 μM), the “collagen type 1 expression compared to untreated cells” value is listed as “significant increase”. The “toxicity suggested by number of cells” value in data set [3] is “no toxicity”. The “number of cells compared to untreated cells” value in data set [3] (serial dilution 5-0.02 μM) is given as “significantly higher”.
For the molecule `O=C(O)CNC(=O)c1c(O)cc(CCc2ccccc2)n2ncnc12` [Enarodustat, N-[[7-Hydroxy-5-(2-phenylethyl)[1,2,4]triazolo[1,5-a]pyridin-8-yl]carbonyl]glycine], the “concentrations with significant increase of collagen type 1 normalized to number of cells vs untreated cells” value in data set [2] fell in the range of 0.31 to 5 µM. The “toxicity suggested by number of cells” value in data set [3] is on record as “no toxicity”. Besides, the “number of cells compared to untreated cells” value in data set [3] (serial dilution 5-0.02 μM) is listed as “no significant difference”.
The like results for `O=c1c(-n2ccnn2)c[nH]n1-c1cc(N2CCOCC2)ncn1` [Molidustat, 1,2-Dihydro-2-[6-(4-morpholinyl)-4-pyrimidinyl]-4-(1H-1,2,3-triazol-1-yl)-3H-pyrazol-3-one] were, in that order, 0.63 to 5 µM, “toxic effect” and “significantly lower”.
In the same order, the values of `Cc1nc(C(=O)NCC(=O)O)c(O)c2ccc(Oc3ccccc3)cc12` [Roxadustat, N-[(4-Hydroxy-1-methyl-7-phenoxy-3-isoquinolinyl)carbonyl]glycine] are 0.08 to 5 µM, “no toxicity” and “significantly higher”.
On to `O=C(O)CNC(=O)C1C(=O)N(C2CCCCC2)C(=O)N(C2CCCCC2)C1=O` [Daprodustat, N-[(1,2-Dicyclohexylhexahydro-2,4,6-trioxo-5-pyrimidinyl)carbonyl]glycine], for which, in data set [2], the “concentrations with significant increase of collagen type 1 normalized to number of cells vs untreated cells” value was 0.31 to 5 µM. Moreover, the “number of cells compared to untreated cells” value is “lower number of cells” in data set [3] (0.08 μM Daprodustat, p<0.0001) and “no significant difference” in data set [3] (serial dilution 5-0.02 μM). Further, in data set [3], the “toxicity suggested by number of cells” value is on record as “no toxicity”.

B1: EPAS1 peptide (FITC-labeled) (peptide)
peptide: ELDLETLAPYIPMDGEDFQL
modifications: also: FITC label, position not given here
notes: The FP assay used 200 nM of FITC-labeled peptide; also called EPAS1-derived peptide
In general, Kd refers to the constant that tells how readily two partners part at equilibrium. Low readings indicate higher affinity, high ones lower affinity. In the case of B1, in data set [4], the Kd came out at 4 µM.

B2: HIF peptide (FITC-labeled) (peptide)
peptide: DLDLEALAPYIPADDDFQLR
modifications: also: FITC label, position not given here
notes: The FP assay used 200 nM of FITC-labeled peptide; also called HIF1 peptide
For B2, in data set [4], the Kd was 7 µM.
